Activity data for 6 compounds are collected here from ChEMBL document CHEMBL1151598, “Synthesis of in vivo potent antimalarial 1,2,4-trioxanes” (Bioorg Med Chem Lett, 1992).

Activity calls are given as the source filed them. The calls are words filed in the database; no cut-off is given here.

Experiment [1] deals with Mus musculus. The experiment can be described thus: Compound was tested for in vivo antimalarial activity against Plasmodium berghei in male mice (Mus musculus) at dose of 90 mg/kg (intraperitoneal); A - Active. It counts as functional, organism-based. Details: dose 90 mg/kg.
In experiment [2] the test system is Mus musculus. The experiment can be described thus: Compound was tested for in vivo antimalarial activity against Plasmodium berghei in male mice (Mus musculus) at dose of 30 mg/kg (ip); A - Active. It counts as functional, organism-based. Details: dose 30 mg/kg.

As for `C=C(c1ccccc1)C1COC2(OO1)C1CC3CC(C1)CC2C3` (stereo not drawn), the result in the experiment on Mus musculus [1] was Active.

Regarding `C=C(c1ccc(C)cc1)C1COC2(OO1)C1CC3CC(C1)CC2C3` (stereo not drawn), in the experiment with Mus musculus [1], the result was Active.

Consider `C=C(c1ccc(OC)cc1)C1COC2(OO1)C1CC3CC(C1)CC2C3` (stereo not drawn), for which the result with Mus musculus [2] and in the experiment with Mus musculus [1] was Active.

Take `C=C(c1ccc(F)cc1)C1COC2(OO1)C1CC3CC(C1)CC2C3` (stereo not drawn): the outcome in the experiment on Mus musculus [1] was Active.

On to `C=C(c1ccc(C)cc1C)C1COC2(OO1)C1CC3CC(C1)CC2C3` (stereo not drawn), for which the result in the experiment on Mus musculus [1] was Active.

Turning to `C=C(c1ccc(Cl)cc1)C1COC2(OO1)C1CC3CC(C1)CC2C3` (stereo not drawn), the outcome in the experiment on Mus musculus [2] and with Mus musculus [1] was Active.
